Results: ChEMBL document CHEMBL1201862, “PubChem BioAssay data set” (2004)
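The compound was tested at five concentrations on cells cultured in 96-well plates, with a 48-hour exposure period. GI50 is the concentration that inhibits growth by half.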 Active and inactive are the calls of the source. Cut-off read from the data, not from the text of the source: active = GI50 up to about 1.1 µM and inactive = higher.

How the values were obtained:
Assay in all cases: NCI-60 cell line screen, 48 h
786-0 = system: 786-0
A549 = system: A549
ACHN = system: ACHN
BT-549 = system: BT-549
CAKI-1 = system: CAKI-1
CCRF-CEM = system: CCRF-CEM
COLO 205 = system: COLO 205
DU-145 = system: DU-145
HCT-116 = system: HCT-116
HCT-15 = system: HCT-15
HOP-62 = system: HOP-62
HOP-92 = system: HOP-92
HT-29 = system: HT-29
Hs-578T = system: Hs-578T
IGROV-1 = system: IGROV-1
K562 = system: K562
KM12 = system: KM12
LOX IMVI = system: LOX IMVI
M14 = system: M14
MDA-MB-231 = system: MDA-MB-231
MDA-MB-435 = system: MDA-MB-435
MDA-N = system: MDA-N
MOLT-4 = system: MOLT-4
Malme-3M = system: Malme-3M
NCI-H226 = system: NCI-H226
NCI-H23 = system: NCI-H23
NCI-H460 = system: NCI-H460
NCI-H522 = system: NCI-H522
NCI/ADR-RES = system: NCI/ADR-RES
OVCAR-3 = system: OVCAR-3
OVCAR-4 = system: OVCAR-4
OVCAR-5 = system: OVCAR-5
OVCAR-8 = system: OVCAR-8
PC-3 = system: PC-3
RPMI-8226 = system: RPMI-8226
RXF 393 = system: RXF 393
SF-268 = system: SF-268
SF-295 = system: SF-295
SF-539 = system: SF-539
SK-MEL-28 = system: SK-MEL-28
SK-MEL-2 = system: SK-MEL-2
SK-MEL-5 = system: SK-MEL-5
SK-OV-3 = system: SK-OV-3
SN12C = system: SN12C
SNB-19 = system: SNB-19
SNB-75 = system: SNB-75
SW-620 = system: SW-620
T47D = system: T47D
TK-10 = system: TK-10
U-251 = system: U-251
UACC-257 = system: UACC-257
UACC-62 = system: UACC-62
UO-31 = system: UO-31
A498 = system: A498
EKVX = system: EKVX
HCC 2998 = system: HCC 2998
HL-60 = system: HL-60
MCF7 = system: MCF7
SR = system: SR

## Cc1cccc2nc3cc(O)cc(O)c3c(O)c12
786-0
  GI50: > 10 µM (inactive)
A549
  GI50: > 10 µM (inactive)
ACHN
  GI50: > 10 µM (inactive)
BT-549
  GI50: > 10 µM (inactive)
CAKI-1
  GI50: > 10 µM (inactive)
CCRF-CEM
  GI50: > 10 µM (inactive)
COLO 205
  GI50: > 10 µM (inactive)
DU-145
  GI50: > 10 µM (inactive)
HCT-116
  GI50: > 10 µM (inactive)
HCT-15
  GI50: > 10 µM
HOP-62
  GI50: > 10 µM (inactive)
HOP-92
  GI50: > 10 µM (inactive)
HT-29
  GI50: > 10 µM (inactive)
Hs-578T
  GI50: 2.86 µM (inactive)
IGROV-1
  GI50: > 10 µM (inactive)
K562
  GI50: > 10 µM (inactive)
KM12
  GI50: > 10 µM (inactive)
LOX IMVI
  GI50: > 10 µM (inactive)
M14
  GI50: > 10 µM (inactive)
MDA-MB-231
  GI50: > 10 µM (inactive)
MDA-MB-435
  GI50: > 10 µM (inactive)
MDA-N
  GI50: > 10 µM (inactive)
MOLT-4
  GI50: > 10 µM (inactive)
Malme-3M
  GI50: > 10 µM (inactive)
NCI-H226
  GI50: > 10 µM (inactive)
NCI-H23
  GI50: > 10 µM (inactive)
NCI-H460
  GI50: > 10 µM (inactive)
NCI-H522
  GI50: > 10 µM (inactive)
NCI/ADR-RES
  GI50: > 10 µM (inactive)
OVCAR-3
  GI50: > 10 µM (inactive)
OVCAR-4
  GI50: > 10 µM (inactive)
OVCAR-5
  GI50: > 10 µM (inactive)
OVCAR-8
  GI50: > 10 µM (inactive)
PC-3
  GI50: > 10 µM (inactive)
RPMI-8226
  GI50: > 10 µM (inactive)
RXF 393
  GI50: > 10 µM (inactive)
SF-268
  GI50: > 10 µM (inactive)
SF-295
  GI50: > 10 µM (inactive)
SF-539
  GI50: > 10 µM (inactive)
SK-MEL-28
  GI50: > 10 µM (inactive)
SK-MEL-2
  GI50: > 10 µM (inactive)
SK-MEL-5
  GI50: > 10 µM (inactive)
SK-OV-3
  GI50: > 10 µM (inactive)
SN12C
  GI50: > 10 µM (inactive)
SNB-19
  GI50: > 10 µM (inactive)
SNB-75
  GI50: 4.54 µM (inactive)
SW-620
  GI50: > 10 µM (inactive)
T47D
  GI50: > 10 µM (inactive)
TK-10
  GI50: > 10 µM (inactive)
U-251
  GI50: > 10 µM (inactive)
UACC-257
  GI50: > 10 µM (inactive)
UACC-62
  GI50: 6.49 µM (inactive)
UO-31
  GI50: > 10 µM (inactive)

## CSc1nc(Br)nc2c1ncn2C1CC(Oc2ccc(C)cc2)C(COc2ccc(C)cc2)O1 (stereo not drawn)
786-0
  GI50: > 100 µM (inactive)
A498
  GI50: > 100 µM (inactive)
A549
  GI50: > 100 µM (inactive)
ACHN
  GI50: 33.7 µM (inactive)
BT-549
  GI50: > 100 µM (inactive)
CAKI-1
  GI50: > 100 µM (inactive)
CCRF-CEM
  GI50: > 100 µM (inactive)
COLO 205
  GI50: > 100 µM (inactive)
DU-145
  GI50: > 100 µM (inactive)
EKVX
  GI50: > 100 µM (inactive)
HCC 2998
  GI50: > 100 µM (inactive)
HCT-116
  GI50: > 100 µM (inactive)
HCT-15
  GI50: > 100 µM
HL-60
  GI50: > 100 µM (inactive)
HOP-62
  GI50: > 100 µM (inactive)
HOP-92
  GI50: > 100 µM (inactive)
HT-29
  GI50: > 100 µM (inactive)
Hs-578T
  GI50: 25.2 µM (inactive)
IGROV-1
  GI50: > 100 µM (inactive)
KM12
  GI50: > 100 µM (inactive)
LOX IMVI
  GI50: > 100 µM (inactive)
M14
  GI50: > 100 µM (inactive)
MCF7
  GI50: > 100 µM (inactive)
MDA-MB-231
  GI50: 61.2 µM (inactive)
MDA-MB-435
  GI50: > 100 µM (inactive)
MDA-N
  GI50: > 100 µM (inactive)
MOLT-4
  GI50: > 100 µM (inactive)
Malme-3M
  GI50: > 100 µM (inactive)
NCI-H226
  GI50: > 100 µM (inactive)
NCI-H23
  GI50: 40.8 µM (inactive)
NCI-H460
  GI50: > 100 µM (inactive)
NCI-H522
  GI50: > 100 µM (inactive)
NCI/ADR-RES
  GI50: > 100 µM (inactive)
OVCAR-3
  GI50: > 100 µM (inactive)
OVCAR-4
  GI50: 83 µM (inactive)
OVCAR-5
  GI50: > 100 µM (inactive)
OVCAR-8
  GI50: > 100 µM (inactive)
PC-3
  GI50: > 100 µM (inactive)
RPMI-8226
  GI50: 93.8 µM (inactive)
SF-268
  GI50: > 100 µM (inactive)
SF-295
  GI50: > 100 µM (inactive)
SF-539
  GI50: > 100 µM (inactive)
SK-MEL-28
  GI50: > 100 µM (inactive)
SK-MEL-2
  GI50: > 100 µM (inactive)
SK-MEL-5
  GI50: > 100 µM (inactive)
SK-OV-3
  GI50: > 100 µM (inactive)
SN12C
  GI50: > 100 µM (inactive)
SNB-19
  GI50: 22.5 µM (inactive)
SNB-75
  GI50: 23.3 µM (inactive)
SW-620
  GI50: > 100 µM (inactive)
T47D
  GI50: > 100 µM (inactive)
TK-10
  GI50: > 100 µM (inactive)
U-251
  GI50: > 100 µM (inactive)
UACC-257
  GI50: > 100 µM (inactive)
UACC-62
  GI50: > 100 µM (inactive)

## Cc1ncc([N+](=O)[O-])n1CCN(C)CCCCn1ccnc1[N+](=O)[O-]
786-0
  GI50: > 100 µM (inactive)
A498
  GI50: > 100 µM (inactive)
A549
  GI50: > 100 µM (inactive)
ACHN
  GI50: > 100 µM (inactive)
BT-549
  GI50: > 100 µM (inactive)
CAKI-1
  GI50: > 100 µM (inactive)
CCRF-CEM
  GI50: > 100 µM (inactive)
COLO 205
  GI50: > 100 µM (inactive)
DU-145
  GI50: > 100 µM (inactive)
EKVX
  GI50: > 100 µM (inactive)
HCC 2998
  GI50: > 100 µM (inactive)
HCT-116
  GI50: > 100 µM (inactive)
HCT-15
  GI50: > 100 µM
HL-60
  GI50: > 100 µM (inactive)
HOP-62
  GI50: > 100 µM (inactive)
HT-29
  GI50: > 100 µM (inactive)
Hs-578T
  GI50: > 100 µM (inactive)
K562
  GI50: > 100 µM (inactive)
KM12
  GI50: > 100 µM (inactive)
LOX IMVI
  GI50: > 100 µM (inactive)
M14
  GI50: > 100 µM (inactive)
MCF7
  GI50: > 100 µM (inactive)
MDA-MB-231
  GI50: > 100 µM (inactive)
MDA-MB-435
  GI50: > 100 µM (inactive)
MDA-N
  GI50: > 100 µM (inactive)
MOLT-4
  GI50: > 100 µM (inactive)
Malme-3M
  GI50: > 100 µM (inactive)
NCI-H226
  GI50: > 100 µM (inactive)
NCI-H23
  GI50: > 100 µM (inactive)
NCI-H460
  GI50: > 100 µM (inactive)
OVCAR-3
  GI50: > 100 µM (inactive)
OVCAR-4
  GI50: > 100 µM (inactive)
OVCAR-5
  GI50: > 100 µM (inactive)
OVCAR-8
  GI50: > 100 µM (inactive)
PC-3
  GI50: > 100 µM (inactive)
RPMI-8226
  GI50: > 100 µM (inactive)
RXF 393
  GI50: > 100 µM (inactive)
SF-268
  GI50: > 100 µM (inactive)
SF-295
  GI50: > 100 µM (inactive)
SF-539
  GI50: > 100 µM (inactive)
SK-MEL-28
  GI50: > 100 µM (inactive)
SK-MEL-2
  GI50: > 100 µM (inactive)
SK-MEL-5
  GI50: > 100 µM (inactive)
SK-OV-3
  GI50: > 100 µM (inactive)
SN12C
  GI50: > 100 µM (inactive)
SNB-19
  GI50: > 100 µM (inactive)
SNB-75
  GI50: > 100 µM (inactive)
SR
  GI50: > 100 µM (inactive)
SW-620
  GI50: > 100 µM (inactive)
T47D
  GI50: > 100 µM (inactive)
TK-10
  GI50: > 100 µM (inactive)
U-251
  GI50: > 100 µM (inactive)
UACC-257
  GI50: > 100 µM (inactive)
UACC-62
  GI50: > 100 µM (inactive)
UO-31
  GI50: > 100 µM (inactive)
